Data taken from US8889671B2, “Compounds and methods for treating bacterial infections” (AstraZeneca AB, priority 2013, dated 2014).
≈ marks a conversion by molar mass, not a printed value. Where two headings read alike, the source gives them in different places.

Columns and labels:
[1] = test system: Pseudomonas aeruginosa; assay: Susceptibility testing (MIC) Assay 2, broth microdilution; format: cell-based; conditions: PAO1, read-out: Pae MIC
Description: (§1) Minimum Inhibitory Concentrations (MICs) were determined by the broth microdilution method in accordance with the Clinical and Laboratory Standards Institute (CLSI) guidelines. In brief, organism suspensions were adjusted to a 0.5 McFarland standard to yield a final inoculum between 3×10^5 and 7×10^5 colony-forming units (CFU)/mL. Bacterial inocula were generally prepared in sterile, cation adjusted Mueller-Hinton Broth (Becton Dickinson) which included Escherichia coli, Klebsiella pneumoniae, and Pseudomonas aeruginosa. Haemophilus influenzae bacterial inocula were prepared in sterile, cation adjusted Mueller-Hinton Broth (Becton Dickinson) containing 0.5% yeast extract (Becton Dickinson) plus 30 mL of 15 μg/mL Bovine Hematin stock (Sigma), and 3 mL of 15 μg/mL β-nicotinamide adenine dinucleotide (Sigma). Strains of Neisseria were tested for MICs using agar dilution methodology in accordance with CLSI guidelines. For broth microdilution testing, an inoculum volume of 100 μL was added to wells (using a Tecan EVO robot) containing 2 μL of DMSO containing 2-fold serial dilutions of drug. All inoculated microdilution panels were incubated in ambient air at 35° C. for 18-24 hours. Following incubation, the lowest concentration of the drug that prevented visible growth as read at OD600 nm and confirmed by a visual read using a test reading mirror was recorded as the MIC. Performance of the assay was monitored by the use of laboratory quality-control strains and commercially available control compounds with defined MIC spectrums, in accordance with CLSI guidelines. Table 3 provides the MIC results (μM) of Examples 1-77 tested in Assay 2. Table 4 provides the MIC (μg/mL) results of Examples 78-80 tested in Assay 2.

[2] = test system: Klebsiella pneumoniae; assay: as above; format: cell-based; conditions: clinical isolate, mucoid, read-out: Kpn MIC
Description: as §1

[3] = test system: Escherichia coli; assay: as above; format: cell-based; conditions: K12, read-out: Eco MIC
Description: as §1

[4] = test system: Haemophilus influenzae; assay: as above; format: cell-based; conditions: ATCC51907, Haemophilus influenzae, ATCC 51907, in vivo strain, read-out: Hin MIC
Description: as §1

[5] = target: Escherichia coli DNA gyrase A/B tetramer (Escherichia coli (strain K12), UniProt P0AES4+P0AES6); assay: DNA gyrase supercoiling activity fluorescence polarisation assay; format: biochemical; conditions: Eco Gyr FP Mean IC50, E. coli DNA gyrase supercoiling, 0.3 mM ATP
Description: In a black, 384-well polystyrene assay plate, 30 microliters/well of 5 nM Escherichia coli DNA gyrase A/B tetramer and 130 micrograms/mL of topologically relaxed plasmid containing the triplex-forming sequence
in an assay buffer consisting of 35 mM Tris-HCl (pH 7.5), 24 mM KCl, 4 mM MgCl2, 2 mM dithiothreitol, 1.8 mM spermidine, 5% (v/v) glycerol, 200 nM bovine serum albumin, 0.8% dimethylsulfoxide, and 0.3 mM ATP were incubated at ambient temperature for (typically 30 minutes) in the absence or presence of 5-10 different concentrations of test compound. The supercoiling reactions were quenched by the addition of 10 microliters/well of 40 nM oligodeoxynucleotide probe in 3× triplex-forming buffer consisting of 150 mM NaCl, and 150 mM sodium acetate at pH 3.5. The oligodeoxynucleotide probe was 5′-BODIPY-FL-labeled
After 60 minutes, the fluorescence anisotropy of the BODIPY-FL was measured in a Tecan Ultra plate reader, using 485 nm excitation and 535 nm emission filters equipped with polarizers. The IC50 was determined by nonlinear regression using two control reactions.

[6] = test system: Streptococcus pyogenes; assay: Susceptibility testing (MIC) Assay 1, broth microdilution; format: cell-based; conditions: Streptococcus pyogenes, Streptococcus pyrgenes, in vivo strain; read-out: Spy MIC
Description: (§2) Minimum Inhibitory Concentrations (MICs) were determined by the broth microdilution method in accordance with the Clinical and Laboratory Standards Institute (CLSI) guidelines. In brief, organism suspensions were adjusted to a 0.5 McFarland standard to yield a final inoculum between 3×10^5 and 7×10^5 colony-forming units (CFU)/mL. Bacterial inocula were prepared for most organisms in sterile, cation adjusted Mueller-Hinton Broth (Beckton Dickinson). The streptococci were prepared as above in cation adjusted Mueller-Hinton Broth to which 2.5% lysed horse blood (Hema Resource & Supply Inc.) was added. An inoculum volume of 100 μL was added to wells (using a Tecan EVO robot) containing 2 μL of DMSO containing 2-fold serial dilutions of drug. All inoculated microdilution trays were incubated in ambient air at 35° C. for 18-24 hours. Following incubation, the lowest concentration of the drug that prevented visible growth as read at OD600 nm and confirmed by a visual read using a test reading mirror was recorded as the MIC. Performance of the assay was monitored by the use of laboratory quality-control strains and commercially available control compounds with defined MIC spectrums, in accordance with CLSI guidelines. Table 1 provides the MIC results (μM) of Examples 1-77 tested in Assay 1. Table 2 provides the MIC (μg/mL) results of Examples 78-80 tested in Assay 1.

[7] = test system: Staphylococcus aureus; assay: as above; format: cell-based; conditions: Staphylococcus aureus
Description: as §2

[8] = test system: Streptococcus pneumoniae; assay: as above; format: cell-based
Description: as §2

[9] = Staphylococcus aureus in vivo strain, MSQS, read-out: Sau(d) MIC
[10] = in vivo strain, MRQR, read-out: Sau(e) MIC
[11] = in vivo strain (footnote b), read-out: Spn(b) MIC
[12] = in vivo strain (footnote c), read-out: Spn(c) MIC

C[C@@H]1CN2c3c(cc4c(N5C[C@H](C)OC5=O)noc4c3F)CC3(C(=O)NC(=O)NC3=O)[C@H]2[C@H](C)O1 [Example 3, (2R,4S,4aS)-11-Fluoro-2,4-dimethyl-8-[(5S)-5-methyl-2-oxo-1,3-oxazolidin-3-yl]-1,2,4,4a-tetrahydro-2′H,6H-spiro[1,4-oxazino[4,3-a][1,2]oxazolo[4,5-g]quinoline-5,5′-pyrimidine]-2′,4′,6′(1′H,3′H)-trione]
MIC [1]: > 200 µM
MIC [2]: > 200 µM
MIC [3]: 50 µM (≈ 24.4 µg/mL)
MIC [4]: 1.6 µM (≈ 0.78 µg/mL)
IC50 [5]: 1.44 µM
MIC [6]: 0.78 µM (≈ 0.38 µg/mL)
MIC [7, 9]: 0.39 µM (≈ 0.19 µg/mL)
MIC [7, 10]: 1.6 µM (≈ 0.78 µg/mL)
MIC ([7]; serum, read-out: Sau(f) MIC): 1.6 µM (≈ 0.78 µg/mL)
MIC [8, 11]: 1.6 µM (≈ 0.78 µg/mL)
MIC [8, 12]: 1.6 µM (≈ 0.78 µg/mL)

C[C@@H]1CN(c2noc3c(F)c4c(cc23)CC2(C(=O)NC(=O)NC2=O)[C@H]2[C@H](C)O[C@H](C)CN42)C(=O)O1 [Example 4, (2R,4S,4aS)-11-Fluoro-2,4-dimethyl-8-[(5R)-5-methyl-2-oxo-1,3-oxazolidin-3-yl]-1,2,4,4a-tetrahydro-2′H,6H-spiro[1,4-oxazino[4,3-a][1,2]oxazolo[4,5-g]quinoline-5,5′-pyrimidine]-2′,4′,6′(1′H,3′H)-trione]
MIC [1]: > 200 µM
MIC [2]: 200 µM (≈ 97.5 µg/mL)
MIC [3]: 9.9 µM (≈ 4.83 µg/mL)
MIC [4]: 0.47 µM (≈ 0.229 µg/mL)
IC50 [5]: 0.39 µM
MIC [6]: 0.36 µM (≈ 0.175 µg/mL)
MIC [7, 9]: 0.25 µM (≈ 0.122 µg/mL)
MIC [7, 10]: 0.67 µM (≈ 0.327 µg/mL)
MIC ([7]; serum, read-out: Sau(f) MIC): 0.47 µM (≈ 0.229 µg/mL)
MIC [8, 11]: 0.42 µM (≈ 0.205 µg/mL)
MIC [8, 12]: 0.46 µM (≈ 0.224 µg/mL)

CC[C@H]1COC(=O)N1c1noc2c(F)c3c(cc12)CC1(C(=O)NC(=O)NC1=O)[C@H]1[C@H](C)O[C@H](C)CN31 [Example 6, (2R,4S,4aS)-8-[(4S)-4-Ethyl-2-oxo-1,3-oxazolidin-3-yl]-11-fluoro-2,4-dimethyl-1,2,4,4a-tetrahydro-2′H,6H-spiro[1,4-oxazino[4,3-a][1,2]oxazolo[4,5-g]quinoline-5,5′-pyrimidine]-2′,4′,6′(1′H,3′H)-trione]
MIC [1]: > 200 µM
MIC [2]: 121 µM (≈ 60.7 µg/mL)
MIC [3]: 100 µM (≈ 50.1 µg/mL)
MIC [4]: 3.1 µM (≈ 1.55 µg/mL)
IC50 [5]: 3.3 µM
MIC [6]: 3.1 µM (≈ 1.55 µg/mL)
MIC [7, 9]: 1.6 µM (≈ 0.802 µg/mL)
MIC [7, 10]: 6.2 µM (≈ 3.11 µg/mL)
MIC ([7]; serum, read-out: Sau(f) MIC): 12 µM (≈ 6.02 µg/mL)
MIC [8, 11]: 6.2 µM (≈ 3.11 µg/mL)
MIC [8, 12]: 3.1 µM (≈ 1.55 µg/mL)

CC[C@@H]1COC(=O)N1c1noc2c(F)c3c(cc12)CC1(C(=O)NC(=O)NC1=O)[C@H]1[C@H](C)O[C@H](C)CN31 [Example 7]
MIC [1]: > 200 µM
MIC [2]: > 200 µM
MIC [3]: 200 µM (≈ 100 µg/mL)
MIC [4]: 12 µM (≈ 6.02 µg/mL)
IC50 [5]: 9.7 µM
MIC [6]: 6.2 µM (≈ 3.11 µg/mL)
MIC [7, 9]: 6.2 µM (≈ 3.11 µg/mL)
MIC [7, 10]: 12 µM (≈ 6.02 µg/mL)
MIC ([7]; serum, read-out: Sau(f) MIC): 25 µM (≈ 12.5 µg/mL)
MIC [8, 11]: 25 µM (≈ 12.5 µg/mL)
MIC [8, 12]: 12 µM (≈ 6.02 µg/mL)

C[C@@H]1CN2c3c(cc4c(N5C(=O)OC[C@H]5c5ccccc5)noc4c3F)CC3(C(=O)NC(=O)NC3=O)[C@H]2[C@H](C)O1 [Example 8, (2R,4S,4aS)-11-Fluoro-2,4-dimethyl-8-[(4R)-2-oxo-4-phenyl-1,3-oxazolidin-3-yl]-1,2,4,4a-tetrahydro-2′H,6H-spiro[1,4-oxazino[4,3-a][1,2]oxazolo[4,5-g]quinoline-5,5′-pyrimidine]-2′,4′,6′(1′H,3′H)-trione]
MIC [1]: > 200 µM
MIC [2]: > 200 µM
MIC [3]: > 200 µM
MIC [4]: 12 µM (≈ 6.59 µg/mL)
IC50 [5]: 7.3 µM
MIC [6]: 12 µM (≈ 6.59 µg/mL)
MIC [7, 9]: 6.2 µM (≈ 3.41 µg/mL)
MIC [7, 10]: 12 µM (≈ 6.59 µg/mL)
MIC ([7]; serum, read-out: Sau(f) MIC): 200 µM (≈ 110 µg/mL)
MIC [8, 11]: 50 µM (≈ 27.5 µg/mL)
MIC [8, 12]: 50 µM (≈ 27.5 µg/mL)
